Laboratory results: patent US6410541B2, “Compounds useful for inhibition of farnesyl protein transferase” (Schering Corporation, priority 1997, dated 2002)

Key:
[1] = biological target: farnesyl protein transferase (UniProt Q02293+Q04631); assay: FPT IC50 (inhibition of farnesyl protein transferase, in vitro enzyme assay); assay type: biochemical; conditions: for IC50: in vitro enzyme assay per WO 95/10516
Procedure: (§1) FPT IC50 (inhibition of farnesyl protein transferase, in vitro enzyme assay) and COS Cell IC50 (Cell-Based Assay) were determined following the assay procedures described in WO 95/10516, published Apr. 20. 1995. GGFT IC50 (inhibition of geranylgeranyl protein transferase, in vitro enzyme assay), Cell Mat Assay, and anti-tumor activity (in vivo anti-tumor studies) could be determined by the assay procedures described in WO 95/10516. The disclosure of WO 95/10516 is incorporated herein by reference thereto.
In Table 10, “nM” represents nanomolar.

COS Cell = COS Cell IC50 (Cell-Based Assay); conditions: COS cells, cell-based assay per WO 95/10516
Procedure: as §1

O=C1CCC(CC(=O)N2CCC([C@H]3c4ncc(Br)cc4CCc4cc(Cl)cc(Br)c43)CC2)CC1 [Compound 13.0]
IC50 [1]: 2.2 nM

O=C1CCN(CC(=O)N2CCC([C@H]3c4ncc(Br)cc4CCc4cc(Cl)cc(Br)c43)CC2)CC1 [Compound 14.0]
IC50 [1]: 2.6 nM

COc1ccc2c(c1)CC(CC(=O)N1CCC([C@H]3c4ncc(Br)cc4CCc4cc(Cl)cc(Br)c43)CC1)C2=O (stereo partly shown) [Compound 17.0B]
FPT inhibition at 140 nM (printed in FPT IC50 column) ([1]; at 140 nM): 32% at 140

O=C1CCCCC1CC(=O)N1CCC([C@H]2c3ncc(Br)cc3CCc3cc(Cl)cc(Br)c32)CC1 (stereo partly shown) [Compound 18.0]
IC50 [1]: 5 nM

O=C1CCCCC1CCC(=O)N1CCC([C@H]2c3ncc(Br)cc3CCc3cc(Cl)cc(Br)c32)CC1 (stereo partly shown) [Compound 19.0]
IC50 [1]: 10.7 nM

C[C@]1(CCC(=O)N2CCC([C@H]3c4ncc(Br)cc4CCc4cc(Cl)cc(Br)c43)CC2)CCCCC1=O [Compound 20.0]
IC50 [1]: 7 nM

O=C(C=C1CCC2(CC1)OCCO2)N1CCC([C@H]2c3ncc(Br)cc3CCc3cc(Cl)cc(Br)c32)CC1 [Compound 21.0]
IC50 [1]: 10.7 nM

O=C(CC1CCC(=NO)CC1)N1CCC([C@H]2c3ncc(Br)cc3CCc3cc(Cl)cc(Br)c32)CC1 (stereo partly shown) [Compound 23.0]
IC50 [1]: 2.7 nM

O=C(CC1CCC2(CC1)OCCO2)N1CCC([C@H]2c3ncc(Br)cc3CCc3cc(Cl)cc(Br)c32)CC1 [Compound 24.0]
IC50 [1]: 4.7 nM

CON=C1CCC(CC(=O)N2CCC([C@H]3c4ncc(Br)cc4CCc4cc(Cl)cc(Br)c43)CC2)CC1 (stereo partly shown) [Compound 25.0]
IC50 [1]: 4.4 nM

O=C(CN1CCC(=NO)CC1)N1CCC([C@H]2c3ncc(Br)cc3CCc3cc(Cl)cc(Br)c32)CC1 [Compound 26.0]
IC50 [1]: 6 nM

CON=C1CCN(CC(=O)N2CCC([C@H]3c4ncc(Br)cc4CCc4cc(Cl)cc(Br)c43)CC2)CC1 [Compound 27.0]
IC50 [1]: 6.7 nM

O=C(CN1CCC2(CC1)SCCS2)N1CCC([C@H]2c3ncc(Br)cc3CCc3cc(Cl)cc(Br)c32)CC1 [Compound 28.0]
IC50 [1]: 35 nM

NC(=O)NN=C1CCC(CC(=O)N2CCC([C@H]3c4ncc(Br)cc4CCc4cc(Cl)cc(Br)c43)CC2)CC1 (stereo partly shown) [Compound 29.0]
IC50 [1]: 3 nM

CC(=O)NN=C1CCC(CC(=O)N2CCC([C@H]3c4ncc(Br)cc4CCc4cc(Cl)cc(Br)c43)CC2)CC1 (stereo partly shown) [Compound 30.0]
IC50 [1]: 4.3 nM

O=C(O)CON=C1CCC(CC(=O)N2CCC([C@H]3c4ncc(Br)cc4CCc4cc(Cl)cc(Br)c43)CC2)CC1 (stereo partly shown) [Compound 31.0]
IC50 [1]: 1.9 nM

CC(C)(C)[Si](C)(C)OCCON=C1CCC(CC(=O)N2CCC([C@H]3c4ncc(Br)cc4CCc4cc(Cl)cc(Br)c43)CC2)CC1 (stereo partly shown) [Compound 32.0]
IC50 [1]: 97 nM

O=C1CCC(C(=O)N2CCC([C@H]3c4ncc(Br)cc4CCc4cc(Cl)cc(Br)c43)CC2)CC1 [Compound 33.0]
IC50 [1]: 5.1 nM

O=C(C1CCC2(CC1)OCCO2)N1CCC([C@H]2c3ncc(Br)cc3CCc3cc(Cl)cc(Br)c32)CC1 [Compound 34.0]
IC50 [1]: 10.7 nM

CON=C1CCC(C(=O)N2CCC([C@H]3c4ncc(Br)cc4CCc4cc(Cl)cc(Br)c43)CC2)CC1 (stereo partly shown) [Compound 35.0]
IC50 [1]: 8.2 nM

CC(C)(C)OC(=O)NC1CCC(C(=O)N2CCC(C3c4ncc(Br)cc4CCc4cc(Cl)cc(Br)c43)CC2)CC1 (stereo not shown) [Compound 36.0]
IC50 [1]: 67 nM

N[C@H]1CC[C@@H](C(=O)N2CCC([C@H]3c4ncc(Br)cc4CCc4cc(Cl)cc(Br)c43)CC2)CC1 [Compound 37.0]
IC50 [1]: 14 nM

NC(=O)NC1CCC(C(=O)N2CCC(C3c4ncc(Br)cc4CCc4cc(Cl)cc(Br)c43)CC2)CC1 (stereo not shown) [Compound 38.0]
IC50 [1]: 6.2 nM

CCOC(=O)C(=O)NC1CCC(C(=O)N2CCC(C3c4ncc(Br)cc4CCc4cc(Cl)cc(Br)c43)CC2)CC1 (stereo not shown) [Compound 39.0]
IC50 [1]: 23 nM

CS(=O)(=O)NC1CCC(C(=O)N2CCC(C3c4ncc(Br)cc4CCc4cc(Cl)cc(Br)c43)CC2)CC1 (stereo not shown) [Compound 40.0]
IC50 [1]: 2.9 nM

CC(C)(C)OC(=O)NC1CCCC(C(=O)N2CCC(C3c4ncc(Br)cc4CCc4cc(Cl)cc(Br)c43)CC2)C1 (stereo not shown) [Compound 43.0]
IC50 [1]: 150 nM

NC1CCCC(C(=O)N2CCC(C3c4ncc(Br)cc4CCc4cc(Cl)cc(Br)c43)CC2)C1 (stereo not shown) [Compound 44.0]
IC50 [1]: 13.9 nM

NC(=O)NC1CCCC(C(=O)N2CCC(C3c4ncc(Br)cc4CCc4cc(Cl)cc(Br)c43)CC2)C1 (stereo not shown) [Compound 45.0]
IC50 [1]: 17.6 nM

CCOC(=O)C(=O)NC1CCCC(C(=O)N2CCC(C3c4ncc(Br)cc4CCc4cc(Cl)cc(Br)c43)CC2)C1 (stereo not shown) [Compound 46.0]
IC50 [1]: 34 nM

NC(=O)C(=O)NC1CCCC(C(=O)N2CCC(C3c4ncc(Br)cc4CCc4cc(Cl)cc(Br)c43)CC2)C1 (stereo not shown) [Compound 49.1]
IC50 [1]: 15.6 nM

O=C(C1CCC(O)CC1)N1CCC(C2c3ncc(Br)cc3CCc3cc(Cl)cc(Br)c32)CC1 (stereo not shown) [Compound 68.0]
IC50 [1]: > 160 nM

CC(=O)OC1CCC(C(=O)N2CCC(C3c4ncc(Br)cc4CCc4cc(Cl)cc(Br)c43)CC2)CC1 (stereo not shown) [Compound 69.0]
IC50 [1]: 7.8 nM | IC50 (COS Cell): 30 nM

O=C(C1CCC(O)CC1)N1CCC(C2c3ncc(Br)cc3CCc3cc(Cl)cc(Br)c32)CC1 (stereo not shown) [Compound 70.0]
IC50 [1]: 11 nM
